The values that follow come from PMC3033209 (Journal of applied microbiology, 2009).

The target of the assay is T1, β-glucosidase from L. brevis SK3 (Levilactobacillus brevis, UniProt Q03P52).
T1 sequence (Q03P52 1-751): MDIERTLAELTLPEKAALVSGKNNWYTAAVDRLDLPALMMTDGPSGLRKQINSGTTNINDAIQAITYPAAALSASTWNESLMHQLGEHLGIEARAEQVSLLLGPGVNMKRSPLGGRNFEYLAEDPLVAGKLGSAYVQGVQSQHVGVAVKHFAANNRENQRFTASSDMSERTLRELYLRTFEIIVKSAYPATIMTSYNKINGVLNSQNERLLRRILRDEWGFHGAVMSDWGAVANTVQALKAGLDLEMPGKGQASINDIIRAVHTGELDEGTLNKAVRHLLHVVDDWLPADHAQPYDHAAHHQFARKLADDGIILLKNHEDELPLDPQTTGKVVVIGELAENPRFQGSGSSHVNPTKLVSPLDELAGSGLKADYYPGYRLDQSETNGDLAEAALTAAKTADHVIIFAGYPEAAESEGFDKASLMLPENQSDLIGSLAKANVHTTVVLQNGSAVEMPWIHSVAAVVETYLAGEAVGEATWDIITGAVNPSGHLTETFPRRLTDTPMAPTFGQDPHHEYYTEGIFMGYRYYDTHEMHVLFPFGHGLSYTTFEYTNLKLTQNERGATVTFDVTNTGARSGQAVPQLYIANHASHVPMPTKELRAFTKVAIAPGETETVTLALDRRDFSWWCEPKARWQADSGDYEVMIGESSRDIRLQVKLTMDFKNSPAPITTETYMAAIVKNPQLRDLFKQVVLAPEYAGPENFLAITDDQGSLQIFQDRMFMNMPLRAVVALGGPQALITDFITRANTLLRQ
Briefly: standard glucosidase assay, p-nitrophenol at […] nm after stop. The note with it: inhibitor, 10 mM pNPβGlc, pH 5.5, 37 °C, 10 min. The class given is biochemical.

`O=C(O)[C@H](O)[C@@H](O)[C@H](O)[C@H](O)CO` [Gluconic acid]: where the note is “200000 µM”, the “Relative activity (%)” value came to 17%.

For the molecule `O=C1O[C@H](CO)[C@@H](O)[C@H](O)[C@H]1O` [Glucono-δ-lactone], the “Relative activity (%)” value (10000 µM) was 14%.

On to `OC[C@H]1OC(O)[C@H](O)[C@@H](O)[C@@H]1O` (stereo partly drawn) [Glucose], for which the “Relative activity (%)” value (200000 µM) was determined as 59%.
